According to paper doi:10.1101/2025.07.01.662609v1, “BtuJ1, a novel surface-exposed B12-binding protein in Bacteroidetes, functions as an extracellular vitamin reservoir that enhances fitness” (biorxiv, 2025):

Target: T1, BtuJ1 (BT1491) (Bacteroides thetaiotaomicron, UniProt Q8A7N3)
T1 construct: gene BT_1491; mature part without lipid anchor residue (signal peptide cleaved between 21 and 22); His-tagged, pET28 NcoI/XhoI, E. coli BL21(DE3); modelled from Met29
T1 sequence (Q8A7N3 23-256): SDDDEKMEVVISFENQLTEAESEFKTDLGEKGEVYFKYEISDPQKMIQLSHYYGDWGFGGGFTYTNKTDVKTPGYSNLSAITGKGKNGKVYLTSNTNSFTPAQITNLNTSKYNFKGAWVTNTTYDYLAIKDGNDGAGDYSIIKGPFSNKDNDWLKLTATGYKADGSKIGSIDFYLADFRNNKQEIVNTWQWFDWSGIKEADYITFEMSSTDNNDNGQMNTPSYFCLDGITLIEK
Assay: binding shown in supplementary figure, method not stated in main text
Conditions: AdoCbl added at 1:2 protein:corrinoid, then SEC in 10 mM Hepes, 100 mM NaCl, pH 7.5

Structure (SMILES): C/C1=C2/[N-][C@H]([C@H](CC(N)=O)[C@@]2(C)CCC(=O)NC[C@@H](C)OP(=O)([O-])O[C@H]2C(O)[C@@H](n3cnc4cc(C)c(C)cc43)O[C@@H]2CO)[C@]2(C)N=C(/C(C)=C3N=C(/C=C4N=C1[C@@H](CCC(N)=O)C\4(C)C)[C@@H](CCC(N)=O)[C@]\3(C)CC(N)=O)[C@@H](CCC(N)=O)[C@]2(C)CC(N)=O.[CH2-][C@H]1O[C@@H](n2cnc3c(N)ncnc32)[C@H](O)[C@@H]1O.[Co+3] (stereo partly shown) [AdoCbl, adenosylcobalamin]
- binding shown in supplementary figure, method not stated in main text: BtuJ1 also binds adenosylcobalamin, which has a bulkier upper ligand compared to other cobalamins
